According to US9587220B2, “Method for inducing cardiac differentiation of pluripotent stem cell” (Kyoto University, priority 2012, dated 2017):
“Also recorded” adds a separate entry of the source. Like-named read-outs stand apart in the source and are kept apart here.

Key:
[1] = tested on: human αMHC promoter-driven EGFP transgenic monkey ESCs; test: αMHC promoter-driven GFP expression, cardiac differentiation of transgenic monkey ESCs (HCA); format: cell-based; details: for intensity of the GFP signal driven by αMHC promoter: comparison of chemical and proteinaceous WNT inhibitors, FIG. 3b,c
Text: To generate human αMHC promoter-driven EGFP-expressing monkey ESCs, the 918 bp upstream from the transcriptional starting site and the third exon just before the open reading frame were amplified from genomic DNAs of KhES-1 hESCs by PCR, using the following primer sets —forward primer, 5′- […]-3′ (SEQ ID No: 37); reverse primer, 5′- (including a SalI linker) 22 […]-3′ (SEQ ID No: 38)—and then ligated into pGEM-T Easy Vector (Promega). The HindIII/SalI fragment from the cloning vector was connected with pEGFP-1 (Clontech). The linearized αMHC-EFGP vector was introduced into CMK6.4 monkey ESCs by electroporation. Transgenic ESC clones were selectively grown with G418 (Sigma-Aldrich). The expression of EGEP was confirmed in beating colonies.
The confluent (4-5 d after passage) αMHC-GFP transgenic monkey ESCs were dissociated enzymatically by CTK solution (Non-patent literature 1), and the ESC clumps (40-100 μm in diameter) were obtained using 40 and 100 μm Cell Strainers (BD Biosciences). The ESC clumps (approximately 5.0×10^3 cells well^−1) were transferred onto 96-well plates (Greiner Bio-One, 96-well black plate, Cat. No. 655090) and incubated in cardiac differentiation medium as described in (4) below. During Days 6-14 of cardiac differentiation, 9600 compounds from the chemical library (dissolved in DMSO) were screened using 96-well plates. Sixteen and 80 wells were used for the control (0.1% DMSO) and chemical compounds (1 per well), respectively. Final concentration of the each compound was approximately 1-5 μM. Medium containing small molecules was changed every 4 d. On Day 14, GFP fluorescence of ESCs was measured by whole-plate scanning, using the Metamorph imaging system (Molecular Device). Metamorph software was used to analyze the GFP fluorescence data and calculate Fluorescence Area, Total Fluorescence Intensity, Average Fluorescence Intensity, and number of GFP-positive colonies for each well. Hit compounds were determined by the following criteria: Average Fluorescence Intensity of a well with the compound was >6 SD greater than Average Fluorescence Intensity of the control (mean of 16 wells), and Total Fluorescence Intensity for the compound was >0 SD greater than the control; or Total Fluorescence Intensity of the compound was >4 SD greater than the control, and Average Fluorescence Intensity of the compound was >0 SD greater than the control. One hundred and twenty compounds passed these criteria and were retested using 8 wells for each compound.
Confluent hESCs and hiPSCs were gently detached with CTK solution and transferred into Petri dishes (BD Biosciences) with Primate ES Cell Culture Medium (ReproCELL, Japan). Cells were held in suspension culture for 8-24 h to form aggregates. The sizes of hPSC aggregates (0.3-1 mm in diameter) are important for efficient differentiation. Following suspension culture, cell aggregates were attached to culture dishes (3-10×10^5 cells cm^−2) in cardiac differentiation medium: IMDM (Sigma), containing 20% FBS (Gibco), 1% MEM non-essential amino acid solution (Sigma), 1% Penicillin-Streptomycin (Gibco), 2 mM L-glutamine (Sigma), 0.001% 2-Mercaptoethanol (Gibco), and 0.005N NaOH, with 10 ng ml^−1 BMP4 (R&D Systems). The medium was changed to cardiac differentiation medium with 10 μM KY02111 and/or other WNT inhibitors added on Day 3 (hiPSC lines) or Day 4 (human or monkey ESC lines); XAV939 (Wako, Japan), IWP-2 (Santa Cruz Biotechnology), IWR-1 (Merck4Bioscience), IGFBP4 (R&D Systems), Dkk1 (R&D Systems) and the mixture of bFGF (R&D Systems), BMP4 (R&D Systems), VEGF (R&D Systems), DKK1 (R&D Systems), and Activin A (R&D Systems) (Non-patent literature 16). Medium was changed every 2-3 d. KY02111 and other WNT inhibitors were added until Day 9 for hiPSC lines and the monkey ESC line, or Day 14 for hESC lines. […]

KY-CM colony = test: QT interval prolongation assay on microelectrode array; format: cell-based, human; details: astemizole 300 pM to 30 μM, increased every 4 min
Procedure: Microelectrode array (MEA) dishes (Multi Channel Systems, Reutlingen, Germany) were coated with ReproCoat (RCESD006, ReproCELL, Japan) in 5% CO2 for 1 h at 37° C. After coating, KY02111-induced cardiomyocytes at Day 30 were transferred into 1 ml of Cardiomyocyte Culture Medium (RCESD006, ReproCELL, Japan) on the MAE dish. Using a pipet tip or glass bar, the cardiomyocytes were gently moved onto the electrode and cultured overnight to attach to the MEA dishes. On the following day, the medium was changed into Cardiomyocyte Test Medium (RCESD003, ReproCELL, Japan). After confirming the presence of beating cardiomyocytes, the MEA dishes were attached to an MEA amplifier (Multi Channel Systems, Reutlingen, Germany), and electrocardiogram-like waves were recorded. After 2 min of recording, 300 pM astemizole (Sigma) or 0.1% DMSO were added, and the concentrations of astemizole (300 pM to 30 μM) were increased every 4 min. ECG-like waves were recorded after 2 min of each astemizole treatment. Beating rate, Na^+ amplitude, K^+ amplitude, and Na^+—K^+ interval were analyzed by LabChart™ software v7 (ADInstruments, Adelaide, Australia).

[2] = tested on: KY02111-induced cardiomyocytes (KY-CMs); details: depolarizing pulses -40 to +40 mV for 500 msec
Procedure: Cells were isolated from beating hPSC-derived cardiomyocytes, using protease solution. The dissociated cells were cultured for 3-7 d on gelatin-coated cover glasses. Patch-clamp recordings were performed in a temperature-controlled room at approximately 25° C. Data from the whole cell patch-clamp configuration were recorded from spontaneously beating cells, using a HEKA EPC10 amplifier (HEKA Instruments Inc.). An external solution containing 140 mM NaCl, 5 mM KCl, 10 mM HEPES, 2 mM CaCl2, 1 mM MgCl2, and 10 mM glucose was adjusted to pH 7.2 with NaOH. A pipette solution containing 80 mM K-aspartate, 50 mM KCl, 1 mM MgCl2, 10 mM EGTA, 3 mM ATP-Mg, and 10 mM HEPES was adjusted to pH 7.2 with KOH. […] The inhibitors were obtained from Sigma-Aldrich. […] The current-voltage relationship was obtained by holding the membrane potential at −40 to −60 mV, and delivering a depolarizing pulse for 500 ms in a stepwise manner, in increments from −60 to 60 mV for INa, −40 to 40 mV for ICaL, −40 to 40 mV for IKs and IKr, and −50 to −140 mV for Ih.

[3] = tested on: human αMHC promoter-driven EGFP transgenic monkey ESCs; test: αMHC promoter-driven GFP expression, cardiac differentiation of transgenic monkey ESCs (HCA); format: cell-based
[4] = tested on: WNT target genes in IMR90-1 hiPSCs; test: Microarray and qPCR gene expression of WNT target genes; format: cell-based, human; details: 12, 24 and 72 h after treatment
Procedure: IMR90-1 iPSCs were cultured in cardiac differentiation medium containing serum. On Day 3, cells were treated with 10 μM KY02111 or 0.1% DMSO for 0, 12, or 24 h. Non-treated cells (0 h), cells treated with KY02111 for 12 h (KY12hr) or 24 h (KY24hr), and cells treated with 0.1% DMSO for 12 h (DMSO12hr) or 24 h (DMSO24hr) were used for microarray analysis. Total RNA was prepared using the RNeasy Mini Kit (Qiagen), according to the manufacturer's instructions. Synthesis of cDNA, in vitro transcription and biotin labeling cRNA, and hybridization to the Human Gene 1.0 ST array (Affymetrix) were performed according to Affymetrix protocols. Hybridized arrays were scanned using an Affymetrix GeneChip Scanner. Data normalization and further analysis were performed with GeneSpring GX (Agilent Technologies). Proportions of treated cells expressing genes relative to control (KY02111/DMSO) were calculated for each time point. […] The microarray data have been submitted to the Gene Expression Omnibus (GEO) public database at NCBI (GEO accession number, GSE33622).
Total RNA was isolated with an RNeasy Mini Kit (QIAGEN). Genomic DNA was completely digested with DNase I (Invitrogen). Total RNA (0.5 μg) was subjected to cDNA synthesis using the SuperScript III Reverse Transcriptase (Invitrogen). qRT-PCR was performed in triplicate, using SYBER GREEN PCR Master Mix on a 7500 Real Time PCR System (Applied Biosystems). The cycling conditions were as follows: 10 min at 95° C.; 40 cycles, each consisting of 15 s at 95° C.; 1 min at 60° C. Total RNA from human adult heart tissue (BioChain) was used to evaluate the expression levels of cardiac marker genes for cardiomyocytes derived from hPSCs. All values were normalized with respect to GAPDH expression level and expressed relative to the corresponding values in human adult hearts (100%).

COc1ccc(CCCC(=O)Nc2nc3ccc(Cl)cc3s2)cc1OC [KY02114, 2-(4-(3,4-dimethoxyphenyl)butanamide)-6-chlorobenzothiazole]
GFP expression level induced by N11474 and related compounds (structure-activity) ([1]; DMSO=100%): induced the highest levels

COc1ccc(CCN2CCC(Nc3nc4ccccc4n3Cc3ccc(F)cc3)CC2)cc1 [astemizole]
Na+-K+ interval of ECG-like waves (KY-CM colony): prolonged

CCS(=O)(=O)N(C)[C@H]1c2cc(C#N)ccc2OC(C)(C)[C@@H]1O [chromanol293B]
KCNQ1 current (IKs) [2]: clearly detected
KCNQ1 current (IKs) ([2]; listed as Chromanol293B): suppressed

COc1ccc2nc(NC(=O)Cc3ccc(OC)c(OC)c3)sc2c1 [N11474]
αMHC promoter-driven EGFP signal on Day 14 ([3]; treatment after Day 8 (Days 8-12 or Days 10-14)): less effective
αMHC promoter-driven EGFP signal on Day 14 ([3]; treatment on Days 0-4): completely repressed GFP expression; also recorded: completely suppressed GFP expression
αMHC promoter-driven EGFP signal on Day 14 ([3]; treatment on Days 4-8): maximized the increase in GFP expression; also recorded: most effective
αMHC promoter-driven EGFP signal on Day 14 ([3]; treatment on Days 6-10): similarly effective to the screening protocol
GFP fluorescence of ESCs compared to DMSO ([1]; chemical screening, treatment Days 6-14, P=0.015): significantly increased; also recorded: significantly enhanced

O=C1Nc2cc(Br)ccc2/C1=C1/Nc2ccccc2/C1=N\O [BIO]
expression levels of WNT target genes by qPCR [4]: tended to augment

O=C(Nc1cccc2cccnc12)c1ccc(N2C(=O)[C@@H]3[C@H](C2=O)[C@@H]2C=C[C@H]3C2)cc1 [IWR-1, reference compound]
intensity of the GFP signal driven by αMHC promoter [1]: increased

B1: IGFBP4: proteinaceous WNT inhibitor (protein, UniProt P22692 22-258, looked up)
Insulin-like growth …: DEAIHCPPCSEEKLARCRPPVGCEELVREPGCGCCATCALGLGMPCGVYTPRCGSGLRCYPPRGVEKPLHTLMHGQGVCMELAEIEAIQESLQPSDKDEGDHPNNSFSPCSAHDRRCLQKHFAKIRDRSTSGGKMKVNGAPREDARPVPQGSCQSELHRALERLAASQSRTHEDLYIIPIPNCDRNGNFHPKQCHPALDGQRGKCWCVDRKTGVKLPGGLEPKGELDCHQLADSFRE
intensity of the GFP signal driven by αMHC promoter [1]: increased

B2: DKK1: proteinaceous WNT inhibitor (protein, UniProt O94907 32-266, looked up)
Dickkopf-related protein 1: TLNSVLNSNAIKNLPPPLGGAAGHPGSAVSAAPGILYPGGNKYQTIDNYQPYPCAEDEECGTDEYCASPTRGGDAGVQICLACRKRRKRCMRHAMCCPGNYCKNGICVSSDQNHFRGEIEETITESFGNDHSTLDGYSRRTTLSSKMYHTKGQEGSVCLRSSDCASGLCCARHFWSKICKPVLKEGQVCTKHRRKGSHGLEIFQRCYCGEGLSCRIQKDHHQASNSSRLHTCQRH
intensity of the GFP signal driven by αMHC promoter [1]: increased
